Patent publication US20160128336A1, “MICROBIAL AGRICULTURE” (DSM IP ASSETS B.V., priority 2013, published 2016)

Tested on: Colletotrichum gloeosporioides (CBS272.51)
Assay: Agar plug bio-assay on YME agar, fungal colony radius towards Streptomyces or natamycin plug
Assay type: cell-based
Details: Table 7; 10 ppm natamycin in agar plug (5% w/w methanol), 7 days at 28° C.
Experimental: Three fungal plant pathogens were tested against the selected S. natalensis strains: Fusarium oxysporum f.sp. lycopersici (CBS414.90), Colletotrichum gloeosporioides (CBS272.51) and Alternaria alternata (CBS103.33). Fusarium oxysporum f.sp. lycopersici is a soil borne fungus causing yield loss in e.g. tomato crops (Fusarium Wilt). Colletotrichum gloeosporioides causes e.g. anthracnose, a plant disease recognizable by dark brown lesions on leaves and fruits. Alternaria alternata is a worldwide occurring saprophyte that can cause phytopathogenic reactions in economically important host plants. The selected S. natalensis strains were tested against these fungal plant pathogens as described below.
Frozen vials (glycerol stocks) or freeze dried tubes from the selected S. natalensis strains were transferred to 100 ml baffled Erlenmeyer flasks containing 20 ml of Yeast Malt Extract broth (YME). […]
The bio-assay was done as follows. […] After 7 days the radius of the fungal colony was measured in the direction of the opposite agar plug (Streptomyces sample). […] The inhibition zone (in percentage) was calculated by using the following formula: 100% * (r0-r1)/r0, wherein r0is the radius (in mm, corrected for the plug radius) of the fungal colony from the control sample and wherein r1 is the radius (in mm, corrected for the plug radius) of the fungal colony from the Streptomyces inhibited sample. […]

C[C@@H]1C/C=C/C=C/C=C/C=C/[C@H](O[C@@H]2O[C@H](C)[C@@H](O)[C@H](N)[C@@H]2O)C[C@@H]2O[C@](O)(C[C@@H](O)C[C@H]3O[C@@H]3/C=C/C(=O)O1)C[C@H](O)[C@H]2C(=O)O [Natamycin, natamycin]
Average inhibition zone (in %): not as high
